Results on four compounds are retold here after US20220323408A1, “COMPOSITION USED FOR COMBATING METABOLIC DISEASES AND USES OF COMPOSITION” (Institute of Zoology, Chinese Academy of Sciences, priority 2019, published 2022).

Molecules are shown by their SMILES.

In series [1] the test system is HFD (high-fat diet)-induced obesity and insulin resistance. To be noted: C57BL/6J mice; cited from earlier work.
The test system of another series is pancreatic beta cells. To be noted: by reducing PGE2-mediated β-cell apoptosis; cited from earlier work.
Series [2] in a line: LC-MS analysis of mouse serum 1 hour after administration. The series is classed as in vivo. The following applies: mice of control group 1 (30 mg/kg A); serum 1 hour later; LC-MS vs blank control group 3. The protocol: Mice were grouped and administered according to the same method as in Example 8, except that serum samples from each group of mice were subjected to liquid phase mass spectrometry (LC-MS, Waters XBridge C18 column and Xevo G2-XS) analysis 1 hour later, and the most prominent small molecule markers were taken out, as shown in FIG. 51.

Series [3] deals with diabetic DIO mice. Briefly: Body weight change in diabetic DIO mice, 4 weeks. The series is classed as in vivo. To be noted: 30 mg/kg A alone or 5 mg/kg B alone per day.
Series [4] relates to diabetic DIO mice. Kind of series: Serum indicators of hyperlipidemia, fatty liver and nitrogen metabolism in diabetic DIO mice. The series is classed as in vivo. The following applies: 4 weeks, 30 mg/kg A and/or 5 mg/kg B per day, vs blank control group 3. The method, then: Subsequent tests were performed on each group of mice that had completed the treatment of Example 8. Examples 9 and 10 detected two indicators related to obesity and hyperlipidemia: total cholesterol and LDL-cholesterol; Example 11 detected alanine aminotransferase (ALT), an indicator related to fatty liver disease; and Examples 12 and 13 detected two indicators related to nitrogen metabolism: albumin/globulin ratio and total protein.

The subject of series [5] is primary human skeletal muscle cells induced insulin resistance. Kind of series: Western blot of primary human skeletal muscle cells with induced insulin resistance, 7 days. The format is cell-based. The following applies: palmitic acid + TNFα 7 days, 100 mg/L A and/or 2 mg/L B on day 4, vs control group 3; for insulin sensitivity indicator phospho-Akt / insulin sensitivity indicator phospho-S6 / myosin heavy chain (MHC): single agents comparably weak. The method, then:
In vitro human primary skeletal muscle cells were used in the experiment, the cells were divided into six groups: for control group 1, the same amount of DMSO solvent was administered for 7 days as a blank control; for control group 2, the same amount of bovine serum albumin (BSA) was administered for 7 days as a fat solvent control; for control group 3, palmitic acid (Pal) and TNFα were administered for 7 days as a high-fat and inflammation-induced insulin resistance control; for control group 4, palmitic acid (Pal) and TNFα were administered for 7 days and 100 mg/L of therapeutic agent A was administered on day 4; for control group 5, palmitic acid (Pal) and TNFα were administered for 7 days and 2 mg/L of therapeutic agent B was administered on day 4; for the experimental group, palmitic acid (Pal) and TNFα were administered for 7 days and 100 mg/L of therapeutic agent A and 2 mg/L of therapeutic agent B were administered on day 4; afterwards, protein Western blot analysis was performed on each group of samples, as shown in FIG. 47.
Background: Immunoblotting shows a protein as a band on a membrane.

The subject of series [6] is diet-induced obesity (DIO) male mice. Kind of series: Body weight change in diet-induced obesity (DIO) mice, 10 days. The series is classed as in vivo. To be noted: 30 mg/kg A alone or 5 mg/kg B alone per day i.p. The protocol: In addition, the control group and the experimental group of the present invention all adopt intraperitoneal injections in the process. The injection volume starts at 4 μl/g of body weight and can be adjusted according to the dose, in which the therapeutic agent A in the experimental group (aspirin (trade name Aspirin) is used in the following examples) is diluted in PBS to a dose between 0.3 mg/kg and 120 mg/kg of body weight, the therapeutic agent B (trimetazidine (trade name Trimetazidine) is used in the following examples) is diluted in PBS to a dose between 0.05 mg/kg and 500 mg/kg of body weight. In the control group, the same amount of the therapeutic agent A or the same amount of the therapeutic agent B alone is usually used, or only the same amount of PBS solvent is used as a blank control. Twenty 6-week-old diet-induced obesity (Jackson Lab's Diet-Induced Obese, DIO) male mice with similar physical status were selected and then divided into four groups, and the number of mice in each group was 5. […] The body weight of each mouse was recorded daily.

The subject of series [7] is p38 and AMPK signaling pathways. Briefly: Western blot of in vitro human primary skeletal muscle cells over 24 hours. The series is classed as cell-based. To be noted: 100 mg/L A and/or 2 mg/L B, single agents vs DMSO control, weaker or slower than A+B. The protocol:
In vitro human primary skeletal muscle cells were used in the test, the cells were divided into four groups, and each group had six time points. For the experimental group, 100 mg/L of therapeutic agent A and 2 mg/L of therapeutic agent B were administered; for the control group 1, 100 mg/L of therapeutic agent A was administered; for the control group 2, 2 mg/L of therapeutic agent B was administered; and for the control group 3, the same amount of DMSO solvent was used as a blank control. The experiment was conducted 24 hours in total.

Where [8] appears, read: long-term administration (3 to 24 hours).
Setting [9] is: short-term administration (within 60 minutes).

With `COc1ccc2c(c1)c(CC(=O)O)c(C)n2C(=O)c1ccc(Cl)cc1` [Indomethacin], in series [1], the “HFD (high-fat diet)-induced obesity” value is listed as “prevent” and the HFD-induced insulin resistance result is “prevent”.

`CS(=O)(=O)Nc1ccc([N+](=O)[O-])cc1OC1CCCCC1` [NS-398]: the β-cell dysfunction entry with pancreatic beta cells is reported as “reverse”.

Consider `CC(=O)Oc1ccccc1C(=O)O` [therapeutic agent A, aspirin], for which, in series [2], the “formation of salicylate derivatives in serum” value is on record as “can effectively form a variety of salicylate derivatives in serum”. The “effect on the body weight” value in the series on diabetic DIO mice [3] is recorded as “almost no obvious effect”. In the series with diabetic DIO mice [4], the LDL-cholesterol entry was “neither therapeutic agent A in control group 1 nor therapeutic agent B in control group 2 used alone was able to achieve significant therapeutic or restorative effects”, the “alanine aminotransferase (ALT)” value was “neither therapeutic agent A in control group 1 nor therapeutic agent B in control group 2 used alone was able to achieve significant therapeutic or restorative effects”, the albumin/globulin ratio entry is recorded as “neither therapeutic agent A in control group 1 nor therapeutic agent B in control group 2 used alone was able to achieve significant therapeutic or restorative effects” and the total cholesterol result was “neither therapeutic agent A in control group 1 nor therapeutic agent B in control group 2 used alone was able to achieve significant therapeutic or restorative effects”. Besides, in the series with diabetic DIO mice [4], the total protein result is listed as “neither therapeutic agent A in control group 1 nor therapeutic agent B in control group 2 used alone was able to achieve significant therapeutic or restorative effects”. In series [5], the “cellular senescence indicator H3K9me3” value is given as “can down-regulate”, the “insulin sensitivity indicator phospho-Akt” value is “can also up-regulate”, the “insulin sensitivity indicator phospho-S6” value was “can also up-regulate” and the “myosin heavy chain (MHC)” value was “can also up-regulate”. Moreover, the “effect on the body weight” value in series [6] is on record as “almost no significant effect”. Also, in series [7] (setting [8]), the PGC1a result is recorded as “could also down-regulate”, the phospho-ACC result was “could also down-regulate” and the phospho-p38 result is listed as “could also down-regulate”. In series [7] (setting [9]), the PGC1a entry is recorded as “could also up-regulate”, the phospho-ACC result was “could also up-regulate”, the phospho-AMPK entry was “could also up-regulate” and the phospho-p38 entry was “could also up-regulate”.

Turning to `COc1ccc(CN2CCNCC2)c(OC)c1OC` [therapeutic agent B, trimetazidine], the “effect on the body weight” value in the series with diabetic DIO mice [3] is on record as “almost no obvious effect”. In the series on diabetic DIO mice [4], the LDL-cholesterol entry was “neither therapeutic agent A in control group 1 nor therapeutic agent B in control group 2 used alone was able to achieve significant therapeutic or restorative effects”, the “alanine aminotransferase (ALT)” value is listed as “neither therapeutic agent A in control group 1 nor therapeutic agent B in control group 2 used alone was able to achieve significant therapeutic or restorative effects”, the albumin/globulin ratio result was “neither therapeutic agent A in control group 1 nor therapeutic agent B in control group 2 used alone was able to achieve significant therapeutic or restorative effects” and the total cholesterol result is “neither therapeutic agent A in control group 1 nor therapeutic agent B in control group 2 used alone was able to achieve significant therapeutic or restorative effects”. In the series with diabetic DIO mice [4], the total protein entry was “neither therapeutic agent A in control group 1 nor therapeutic agent B in control group 2 used alone was able to achieve significant therapeutic or restorative effects”. In addition, in series [5], the “cellular senescence indicator H3K9me3” value is given as “cannot achieve the same effect”, the “insulin sensitivity indicator phospho-Akt” value is listed as “can also up-regulate”, the “insulin sensitivity indicator phospho-S6” value is “can also up-regulate” and the “myosin heavy chain (MHC)” value is listed as “can also up-regulate”. For the same compound, the “effect on the body weight” value in series [6] is “almost no significant effect”. Further, in series [7] (setting [8]), the PGC1a entry is on record as “could also down-regulate”, the phospho-ACC result was “could also down-regulate” and the phospho-p38 result is recorded as “could also down-regulate”. In series [7] (setting [9]), the PGC1a entry was “could also up-regulate”, the phospho-ACC result was “could also up-regulate”, the phospho-AMPK result is reported as “could also up-regulate” and the phospho-p38 entry is given as “could also up-regulate”.
